Legend:
Assay type in all cases: in vivo, human
[1] = tested on: patients with clinical statin-induced myalgias; experiment: Placebo-controlled pilot study of ribose on muscle pain in patients with statin-induced myalgias; conditions: for Severity of symptoms, Mean (sd): scale 1=mild to 5=severe
From the text: Thirty patients aged 20 to 80 years of age presently taking statins and showing clinical statin-induced myalgias were randomized in a six-week placebo-controlled study of the effect of ribose on muscle pain. Fifteen patients were given five grams of ribose twice a day to determine the improvement in clinical symptoms, using an objective patient questionnaire and physician interview. The primary symptom reported was muscle pain, but other symptoms commonly reported included fatigue, poor sleep, a decrease in mental clarity and a reduced sense of well-being. Fifteen patients presently taking statins were given five grams of glucose twice a day as a control. All patients were given a complete history and physical exam. The patient's assessment of muscle pain, soreness or cramping was graded on a scale of one to five, five being the most severe.
Exclusions: Statin-induced myopathy with elevated CPJK over twice normal • Statin-induced hepatopathy with elevated LFTs over twice normal Pregnancy • Insulin-dependant diabetes • Diseases known to be associated with myalgias, such as fibromyalgia, PMR, CTD, genetic or acquired myopathies • New drugs or supplements during the study period
Inclusions: • Patients on any FDA-approved statin at recommended doses. • Constant use of statin dose and any other drugs for at least four weeks prior to study entry
Ribose or glucose were given as a pill or powder and compliance was monitored by pill count or powder measurement on each visit, weekly during the four week study period. A questionnaire was developed to validate the study results.
The severity of symptoms were compared at each follow-up visit. Subjects were asked to rate the severity of symptoms on a scale from 1 to 5; 1=mild and 5=severe.

[2] = tested on: statin drug-induced rhabdomyolysis patient; experiment: Patient with drug-induced rhabdomyolysis given ribose (case report)
From the text: They were started on a statin drug. Within three months they were diagnosed with rhabdomyolysis resulting in chronic renal failure and symptoms of extreme fatigue and muscle pain. The patient was placed on five grams of ribose, twice daily, after symptoms had persisted for about four months. […] They stayed on the regimen for about three months. Upon cessation of ribose administration, the fatigue and pain slowly returned, but not as severe as had been previously experienced.

[3] = tested on: patients with chronic fatigue syndrome or fibromyalgia syndrome; experiment: Pre- and post-ribose Visual Analog Scale assessment in chronic fatigue syndrome or fibromyalgia syndrome patients
From the text: There is a cluster of diseases of unknown etiology that share some common symptoms. Included in this cluster are chronic fatigue syndrome, fibromyalgia syndrome and statin-induced myalgia. The most prominent symptoms is pain in the muscles, accompanied by pain in connective tissue (fibromyalgia), sleep disturbance, lack of mental clarity and feelings of well-being. In addition to the patients of Example 1 and 2, who presented with statin-induced myalgia, a mixed cohort of patients having given a physician's diagnosis of chronic fatigue syndrome or fibromyalgia syndrome were given a supply of D-ribose for self administration. Each patient served as his or her control, the results being reported as pre- and post-ribose administration. Compliance was estimated by the amount of the ribose supply remaining. Those patients having administered at least one-half of the 280 grams supply were included in the following summary. A total of 41 subjects were enrolled, of whom five were considered non-compliant and excluded from these analyses. Of the remaining 36 subjects, 78% were female, average age 48 years; 58% and 85% had been previously diagnosed with fibromyalgia and/or chronic fatigue syndrome. Twenty-nine subjects (81%) took a B-complex vitamin daily. The average length of time taking ribose was 25 days. The primary outcome measure was the initial versus final visit Visual Analog Scale (VAS) score: • 1. Visual Analog (well-being) Scale of 1-10 for five questions obtained before the first and after the last dose of ribose. • (A) How is your energy? (1=near dead and 10+excellent) • (B) How is your sleep? (1=no sleep and 10=8 hours of sleep a night without waking. • (C) How is your mental clarity? (1=brain dead and 10=good clarity) • (D) How bad is your pain? (1=very severe pain and 10=pain free) • (F) How is your overall sense of well-being? (1=near dead and 10=excellent) On taking the final dose, the patient was also asked in fill in: “much better, somewhat better, no change, somewhat worse and much worse.” The patients were also asked to comments on benefits or side effects. If they felt better, about how long did it take to feel better? Since the compliance was ascertained only by the amount of ribose remaining, the patients were asked to comment in more detail on their guesstimate of doses missed.

[4] = individualized response, ribose n = 12
[5] = person, five grams of ribose twice daily, within one week

## O=C[C@H](O)[C@H](O)[C@H](O)CO [Ribose, D-ribose]
[1]; Week 1, n = 15
  Severity of symptoms, Mean (sd): 3.7 (0.8)
[1]; Week 2, n = 13
  Severity of symptoms, Mean (sd): 3.9 (0.8)
[1]; Week 3, n = 12
  Severity of symptoms, Mean (sd): 3.7 (0.8)
[1]; Week 4, n = 12
  Severity of symptoms, Mean (sd): 3.6 (1.0)
[1]; Week 5, wash out period, n = 9
  Severity of symptoms, Mean (sd): 3.4 (1.0)
[1]; Week 6, wash out period, n = 8
  Severity of symptoms, Mean (sd): 3.7 (0.8)
[1]; baseline, scale 1 to 5, placebo group 3.0
  severity of symptoms at baseline: 3.7
[1]; five grams ribose twice a day, 11 of 13 ribose patients, placebo 3 of 14 (21%)
  global assessment of symptom improvement: patients classified as Improved: 85%
[1]; four weeks, 10 of 12 remaining ribose patients, placebo 5 of 14 (36%), p=0.02
  patients reporting a change in symptoms at end of test period: 83%
[1]; [4]
  patients with More than 50% improvement: 36%
  patients with No improvement or worse: 27%
  patients with Some improvement: 73%
[1]; individualized response, ribose n = 12, listed as ribose
  patients with No improvement or worse: 27%
[1]; repeated measures analysis adjusted for baseline severity difference, p=0.35
  average improvement greater than the placebo group: 0.10 units per week
[2]; [5]
  fatigue (patient report): greatly reduced
  muscle pain (patient report): gone
[2]; ribose resumed a month after cessation, fatigue and pain had slowly returned
  symptoms after returning to the ribose regimen: again experienced relief of symptoms
[3]; 23 of the 35 patients answering the general question
  patients experiencing at least some improvement during the study: 65.7%
[3]; 36 patients, post-ribose, scale 1-10, pre-ribose 3.8 (1.1), average 25 days on ribose
  VAS Energy, Post- Mean (std): 5.5 (1.5)
[3]; 36 patients, post-ribose, scale 1-10, pre-ribose 4.3 (1.3)
  VAS Well-being, Post- Mean (std): 5.6 (1.5)
[3]; 36 patients, post-ribose, scale 1-10, pre-ribose 4.8 (1.6)
  VAS Sleep, Post- Mean (std): 6.0 (1.9)
[3]; 36 patients, post-ribose, scale 1-10, pre-ribose 4.9 (1.5)
  VAS Mental Clarity, Post- Mean (std): 5.7 (1.7)
[3]; 36 patients, post-ribose, scale 1=very severe pain, 10=pain free, pre-ribose 4.9 (2.3)
  VAS Pain, Post- Mean (std): 5.6 (2.2)
[3]; general question at final dose
  patients reporting no change to somewhat worse than at the beginning of the study: three
